The values below come from article PMC6727846 (Journal of medicinal chemistry, 2019).

The target in one series is PM-X (Plasmodium falciparum, UniProt Q8IAS0). In kind it is cell-based. Particulars: western blot, substrate processing; data not shown. For orientation: A western blot detects proteins with antibodies after separation by electrophoresis.
Series [1] in a line: Mouse liver microsome metabolic stability. Particulars: in words. On the technique in general: Liver microsomes are vesicles of endoplasmic reticulum, rich in cytochrome P450 enzymes.
A further series in a line: Cytotoxicity selectivity. In kind it is cell-based.
In a further series the target is Pf PM-V (Plasmodium falciparum, UniProt Q8I6Z5). In kind it is cell-based. As to conditions: knockdown assay; data not shown.
Series [2] concerns Plasmodium falciparum 3D7 (CQ-sensitive). The experiment in a line: In vitro antimalarial SYBR Green I fluorescence assay. It counts as cell-based. As to conditions: for effect of substitution on Pf 3D7 potency, in words: SAR statement in text.
The target in a further series is T1, PM-IX (Plasmodium falciparum, UniProt Q8ILG2).
T1 sequence (Q8ILG2 1-627): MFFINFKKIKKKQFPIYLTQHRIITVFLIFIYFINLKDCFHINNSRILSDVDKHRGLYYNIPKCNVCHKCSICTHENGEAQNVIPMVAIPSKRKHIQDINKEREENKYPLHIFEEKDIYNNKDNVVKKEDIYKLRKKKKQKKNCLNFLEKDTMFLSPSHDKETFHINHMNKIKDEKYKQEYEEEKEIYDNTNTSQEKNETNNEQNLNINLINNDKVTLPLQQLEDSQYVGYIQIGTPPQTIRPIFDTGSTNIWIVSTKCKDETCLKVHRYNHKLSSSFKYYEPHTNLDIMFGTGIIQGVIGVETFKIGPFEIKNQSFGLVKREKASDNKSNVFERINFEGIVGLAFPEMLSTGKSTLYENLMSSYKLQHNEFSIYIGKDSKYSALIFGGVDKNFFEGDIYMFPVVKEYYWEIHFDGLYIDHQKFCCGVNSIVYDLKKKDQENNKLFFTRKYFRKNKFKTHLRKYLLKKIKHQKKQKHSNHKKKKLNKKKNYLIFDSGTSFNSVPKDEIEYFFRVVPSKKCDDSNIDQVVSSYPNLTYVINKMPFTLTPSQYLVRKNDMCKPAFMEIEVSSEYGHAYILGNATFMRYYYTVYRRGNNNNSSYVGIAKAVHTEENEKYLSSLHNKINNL
In kind it is cell-based. Particulars: western blot, substrate processing; data not shown.

The target of another series is Pf plasmepsin II (PM-II) (Plasmodium falciparum, UniProt Q8I6V3). Briefly: biochemical.
The subject of series [3] is Plasmodium falciparum Dd2 (multi-drug resistant). Briefly: In vitro antimalarial SYBR Green I fluorescence assay. It counts as cell-based.
The mark [4] stands for this setting: Plasmodium falciparum, 3D7, 72 h, read-out: Pf 3D7 IC50.
The mark [5] stands for this setting: Plasmodium falciparum, 3D7, read-out: Pf 3D7 IC50 (side-by-side with CQ).

Like-named read-outs stand apart in the source and are kept apart here. Bounds are passed on as bounds.

Sequence of Pf plasmepsin II (PM-II) (Q8I6V3 125-453): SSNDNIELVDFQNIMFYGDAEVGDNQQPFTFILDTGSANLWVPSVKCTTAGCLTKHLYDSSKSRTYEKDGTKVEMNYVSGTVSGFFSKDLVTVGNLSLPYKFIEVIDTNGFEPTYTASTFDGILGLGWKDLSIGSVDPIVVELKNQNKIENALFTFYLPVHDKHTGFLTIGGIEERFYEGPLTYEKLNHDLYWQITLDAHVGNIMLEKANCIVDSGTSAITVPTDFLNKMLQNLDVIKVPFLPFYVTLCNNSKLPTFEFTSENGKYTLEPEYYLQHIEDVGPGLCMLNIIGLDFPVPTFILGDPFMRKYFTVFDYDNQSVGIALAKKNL
Sequence of Pf PM-V (Q8I6Z5 whole entry): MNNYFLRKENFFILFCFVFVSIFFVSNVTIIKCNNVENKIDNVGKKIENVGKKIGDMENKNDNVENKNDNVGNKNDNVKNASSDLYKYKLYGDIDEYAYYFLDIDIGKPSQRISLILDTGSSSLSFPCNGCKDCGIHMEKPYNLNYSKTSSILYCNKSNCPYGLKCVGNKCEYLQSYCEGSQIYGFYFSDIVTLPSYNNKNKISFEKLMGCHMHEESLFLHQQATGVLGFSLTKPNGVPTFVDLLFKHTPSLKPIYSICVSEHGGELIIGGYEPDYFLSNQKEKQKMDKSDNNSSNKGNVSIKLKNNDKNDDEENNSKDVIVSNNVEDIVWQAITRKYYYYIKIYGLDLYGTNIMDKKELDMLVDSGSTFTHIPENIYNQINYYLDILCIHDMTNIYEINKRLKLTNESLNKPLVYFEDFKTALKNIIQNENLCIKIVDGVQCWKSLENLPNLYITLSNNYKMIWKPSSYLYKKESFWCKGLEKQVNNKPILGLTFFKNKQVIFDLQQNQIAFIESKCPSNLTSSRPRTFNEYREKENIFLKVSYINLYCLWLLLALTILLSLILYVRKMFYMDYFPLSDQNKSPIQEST
Sequence of PM-X (Q8IAS0 222-573): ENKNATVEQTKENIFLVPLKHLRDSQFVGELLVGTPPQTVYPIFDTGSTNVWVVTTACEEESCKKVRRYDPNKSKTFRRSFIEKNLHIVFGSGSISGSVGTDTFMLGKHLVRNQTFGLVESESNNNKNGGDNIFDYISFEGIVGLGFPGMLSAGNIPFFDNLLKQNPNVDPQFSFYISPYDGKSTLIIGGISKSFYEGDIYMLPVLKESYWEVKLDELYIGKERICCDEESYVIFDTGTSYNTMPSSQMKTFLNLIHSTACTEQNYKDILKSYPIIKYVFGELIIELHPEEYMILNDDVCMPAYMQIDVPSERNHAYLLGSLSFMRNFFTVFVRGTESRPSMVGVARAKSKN

`COc1ccc(CNC(=O)[C@@H]2CNC[C@H]2c2ccc(C(F)(F)F)cc2)cc1` (racemic) [compound 6]: the “inhibition of PM-X” value against PM-X is “inactive”. In series [1], the “metabolic stability profile in mouse liver microsomes” value is given as “improved”. Also, the selectivity ratio in “Cytotoxicity selectivity” was determined as 100. For the same compound, the “inhibition of Pf PM-V” value against Pf PM-V was “inactive”. Also, the “increase in potency relative to H (13)” value in series [2] (Pf 3D7, amide benzyl ring SAR) amounted to 10 fold. The 50% inhibitory concentration (IC50) – broadly, the concentration that gives 50% inhibition – in series [2] (setting [4]) amounted to 385 nM. For the same compound, the “inhibition of PM-IX” value against PM-IX is “inactive”.

Take `CN(C)c1ccc(CNC(=O)[C@H]2CNC[C@@H]2c2ccc(C(F)(F)F)nc2)cc1` (racemic) [compound 34]: the IC50 at Pf plasmepsin II (PM-II) is over 10000 nM; in series [2] (setting [4]), 230 nM. In addition, the “effect of substitution on Pf 3D7 potency, in words” value (from here on “effect of substitution”) in series [2] was “without loss in potency”.

For the compound `C[C@H](NC(=O)[C@H]1CNC[C@@H]1c1ccc(C(F)(F)F)cc1)c1ccc(N(C)C)cc1` [54b, (+)-(3R,4S)-N-[(1S)-1-[4-(dimethylamino)phenyl]ethyl]-4-[4-(trifluoromethyl)phenyl]pyrrolidine-3-carboxamide], the 50% effective concentration (EC50) (usually the midpoint of the concentration-response curve) was determined as 21 nM in series [3] (DD2, read-out: EC50 against drug resistant Dd2 strain) and 46 nM in series [2] (Plasmodium falciparum, 3D7, read-out: EC50 against drug sensitive Plasmodium falciparum 3D7). Besides, the half-inhibitory concentration (IC50) in series [2] (setting [4]) turned out to be 51 nM; in series [2] (setting [5]), 46 ± 6 nM.

As to `C[C@@H]1CC[C@H]2[C@@H](C)C(=O)O[C@@H]3O[C@@]4(C)CC[C@@H]1[C@]32OO4` [artemesinin, reference compound], the IC50 in series [2] (setting [4]) was 33 ± 0.6 nM.

In the case of `CCN(CC)CCCC(C)Nc1ccnc2cc(Cl)ccc12` (stereo not drawn) [chloroquine, reference compound], the IC50 in series [3] (DD2, read-out: Pf Dd2 IC50 (side-by-side with CQ)) came out at 196 ± 14 nM; in series [2] (setting [4]), 54 ± 0.4 nM; in series [2] (setting [5]) it was 38 ± 2 nM.

Consider `Cc1ccc(CNC(=O)[C@@H]2CNC[C@H]2c2ccc(C(F)(F)F)cc2)cc1` [compound 12], for which, on Pf plasmepsin II (PM-II), the IC50 is over 10000 nM.

As for `CN(C)c1ccc(CNC(=O)[C@H]2CNC[C@@H]2c2ccc(C(F)(F)F)cc2)cc1` [compound 14], the half-maximal inhibitory concentration (IC50) at Pf plasmepsin II (PM-II) is over 10000 nM.

Consider `CCN(CC)c1ccc(CNC(=O)[C@@H]2CNC[C@H]2c2ccc(C(F)(F)F)cc2)cc1` [compound 16], for which the half-inhibitory concentration (IC50) against Pf plasmepsin II (PM-II) is over 10000 nM.

`CN(C)c1ccc(CNC(=O)[C@@H]2CNC[C@H]2c2ccc(C(F)(F)F)c(F)c2)cc1` [compound 24] showed an IC50 on Pf plasmepsin II (PM-II) of over 10000 nM.

`CN(C)c1ccc(CNC(=O)[C@@H]2CNC[C@H]2c2ccc(C(F)(F)F)c(Cl)c2)cc1` [compound 26] showed an IC50 on Pf plasmepsin II (PM-II) of over 10000 nM.

As for `CN(C)c1ccc(CNC(=O)[C@@H]2CNC[C@H]2c2ccc(Oc3ccccc3)cc2)cc1` [compound 30], the IC50 on Pf plasmepsin II (PM-II) was over 10000 nM. For the same compound, the “effect of substitution” value in series [2] was “tolerated”.

As for `CN(C)c1ccc(CNC(=O)[C@H]2CNC[C@@H]2c2cnc(C(F)(F)F)nc2)cc1` [compound 35], the “effect of substitution” value in series [2] was “modest erosion of potency”.

For `C[C@@H](NC(=O)[C@H]1CNC[C@@H]1c1ccc(C(F)(F)F)nc1)c1ccc(N(C)C)cc1` [compound 55, (+)-(3R,4S)-N-[(1R)-1-[4-(dimethylamino)phenyl]ethyl]-4-[6-(trifluoromethyl)pyridin-3-yl]pyrrolidine-3-carboxamide], in series [2] (Pf 3D7, SAR comparison stated in text), the “reduction / loss in potency relative to parent analog” value is on record as over 30 fold.
